Assay results: patent US11903912B2, “Composition for preventing and treating breast cancer including selenopsammaplin A as active ingredients” (Seoul National University R & DB Foundation, priority 2019, dated 2024)

Key:
breast tumors = assay: Breast tumor growth in xenograft mouse model; type: in vivo, nude BALB/c mice
Protocol: Breast cancer cells were injected into fat pads of nude BALB/c mice (8-week-old, female). When the tumor size reached about 200 mm^3, the compound was injected intraperitoneally three times a week. The tumor volume was calculated by the following equation: [volume […]=(L×W2)/2] and illustrated in FIG. 8A. 38 days after administration began, the mice were sacrificed and tumors were extracted, and the weights thereof were measured and illustrated in FIG. 8B. The body weights of the mice measured during the experiment are illustrated in FIG. 8C.

[1] = system: EMT markers in MDA-MB-231 cells; assay: Gene expression of EMT markers, real-time PCR; type: cell-based, human; conditions: MDA-MB-231, real-time PCR
Protocol: To confirm the EMT-related gene expression levels of the human breast cancer cell line MDA-MB-231, an experiment was performed as follows. To examine the EMT marker expression levels of the human breast cancer cell line MDA-MB-231, breast cancer cells were spread at a concentration of 1×10^6 cells/well on an RPMI medium containing 10% FBS in a 100 mm culture dish, cultured at 37° C. for 24 hours under a 5% CO2 condition, and then washed twice with phosphate-buffered saline (PBS). Attached cells were washed twice with PBS, the TRI reagent (TRIzol (#15596-026, Invitrogen, Grand Island, N.Y.)) was used to disrupt the cells, and then CHCl3 was added thereto to extract RNA, followed by precipitation using isopropyl alcohol. The RNA precipitate was washed with 70% ethanol, dried in air, and then […] using nuclease-free water (AM9937, Ambion, Austin, Tex.), followed by heating at 55° C. for 10 minutes and heat treatment at 70° C. for 5 minutes, so that RNA was present in a single strand state. Total RNA was quantified using NanoDrop (ND-1000, Dae Myung Science, Seoul, Korea) and diluted to 1 μg/μL, and then cDNA was produced using Avian Myeloblastosis Virus (AMV) Reverse Transcriptase (M5108, Promega, Madison, Wis.) and an oligo(dT)15 primer (C110B, Promega, Madison, Wis.). A target gene was amplified in a MiniOpticon™ Real-time PCR Detection system (CFB-3120, Bio-Rad, Hercules, Calif.) using iQTM SYBR Green Supermix (#170-8880, Bio-Rad, Hercules, Calif.) and target gene-specific primers. Real-time PCR conditions were as follows: a PCR cycle of denaturation at 95° C. for 20 seconds; denaturation at 95° C. for 20 seconds; annealing at 56° C. for 20 seconds; and elongation at 72° C. for 30 seconds, and the PCR cycle was repeated 40 times, followed by the final process at 95° C. for 1 minute and at 55° C. for 1 minute. Ct values were determined by the method according to Livak K J et al ((1996) Method 25:402-408) using MJ Opticon Monitor software (Opticon Monitor 3.1.32, Bio-Rad, Hercules, Calif.), and calibrated with the Ct value of β-actin of the sample, and the mRNA expression of EMT markers in the breast cancer cell line is illustrated in FIGS. 7A to 7D.

[2] = system: A549 human lung cancer cells; assay: SRB cytotoxicity test, A549; type: cell-based; conditions: SRB assay, cultured 3 days
Protocol: A cytotoxicity test was performed using synthesized selenopsammaplin A and derivatives thereof (Lee S K et al […] Chem Biol Interact 115:215-28).
The cytotoxicity test was performed on a total of five representative cancer cell lines. The cytotoxicity of each compound was measured using an SRB assay method (human lung cancer cells, A549; human colon cancer cells, HCT116; human breast cancer cells, MDA-MB231; human liver cancer cells, SK-HEP-1; human gastric cancer cells, SNU638).
Each cell line was sub-cultured once or twice using Roswell Park Memorial Institute (RPMI) medium 1640 (RPMI 1640) or Dulbecco's Modified Eagle's Medium (DMEM) containing 10% fetal bovine serum (FBS) inactivated by heat, 100 units/mL of penicillin, 100 μg/mL of streptomycin, and 250 ng/mL of amphotericin B at 37° C. for 1 week under a 5% CO2 condition. All cells were […] in liquid nitrogen, and then passaged three or more times to be used in the experiment. The effects of compounds on cell growth were measured using a sulforhodamine B (SRB) method (Lee et al (1998) Chemico-Biol Interact 115:215-228).
Specifically, each human cancer cell line used in the present invention was sub-cultured in an RPMI medium containing 10% FBS, 1% PSF, and the like, and 10 μl of a sample dissolved in 10% DMSO and 190 μl (4-5×10^4 cells/ml) of the cell suspension were added to each well of a 96-well plate and cultured for 3 days. 190 μl of the cell suspension was added to at least 16 wells and cultured for 30 minutes, and used as a zero-day control. The cultured cells were fixed with 10% trichloroacetic acid (TCA) and then stained with an SRB solution, and the staining solution was dissolved with 10 mM Tris-base, and then absorbance at 515 nm was measured. Using the case of culturing in 10% DMSO as a control, cell viability according to each test material treatment was measured using Equation 1 below. Etoposide was used as a positive control. % Viability=(OD(sample)−OD(0-day))/(OD(10% DMSO)−OD(0-day))×100 [Equation 1]
Assuming that a control not-treated with the sample was set at 100%, the values of sample-treated groups were expressed as percentage with respect to the control, and each test material treatment results were obtained as the mean±SEM of two or three tests. The IC50 value is the concentration of the test material for a 50% survival rate.

MDA-MB-231 cells = assay: Cancer cell migration (scratch) test; type: cell-based, human; conditions: MDA-MB-231, scratch, 50-400 nM, 24 hours
Protocol: The triple-negative breast cancer cell line MDA-MB-231 was spread at a concentration of 2×10^6 cells/well on a DMEM medium containing 10% FBS in a 6-well plate, cultured at 37° C. for 24 hours under a 5% CO2 condition, and then washed once with phosphate-buffered saline (PBS). After scratching using a 200 μl tip, the cells were treated with 50-400 nM compound 2 and 400 nM psammaplin A, and then cultured for 24 hours. After washing once with PBS, the degree of migration of cells was photographed using a microscope, and the results thereof are illustrated in FIG. 5A. The degree of scratch healing compared to a control using ImageJ software is illustrated in FIG. 5B.

Question: For `O=C(NCC[Se][Se]CCNC(=O)/C(Cc1ccccc1)=N/O)/C(Cc1ccccc1)=N/O` [Compound 2, (2E,2′E)-N,N′-(diselenediylbis(ethane-2,1-diyl))bis(2-(hydroxyimino)-3-phenylpropanamide)], which tumor weight (breast tumors; 38 days after administration began, compared to control, psammaplin A and paclitaxel groups) is on record?
Answer: remarkably reduced

Question: And the tumor volume (breast tumors; intraperitoneally three times a week, compared to the control)?
Answer: remarkably reduced

Question: What about the “body weights of the mice” value (breast tumors; measured during the xenograft experiment) of the same compound?
Answer: not affected

Question: What about the “mRNA expression of E-cadherin (CDH1)” value [1] of the same compound?
Answer: increased

Question: And the “mRNA expression of N-cadherin (CDH2)” value [1]?
Answer: suppressed

Question: What about the “mRNA expression of ZEB1” value [1] of the same compound?
Answer: suppressed

Question: What about the “mRNA expression of vimentin (VIM)” value [1] of the same compound?
Answer: suppressed

Question: And the IC50 [2]?
Answer: 80 nM

Question: What about the “migration of breast cancer cells” value (MDA-MB-231 cells) of the same compound?
Answer: effectively suppressed
